We go through 13 compounds from ChEMBL document CHEMBL1201862, “PubChem BioAssay data set” (2004).

Each structure is given as a SMILES string.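 All cell lines were grown in 96-well plates and treated with compound for 48 hours. GI50 marks 50% less growth.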 Active and inactive are the calls of the source. Cut-off read from the data, not from the text of the source: active = GI50 up to about 1.1 µM and inactive = higher.

What all share (experiment): NCI-60 cell line screen, 48 h
Experiment [1] relates to HCC 2998.
For experiment [2], the system named is OVCAR-5.
Experiment [3] has as its system MOLT-4.
For experiment [4], the system named is A498.
For experiment [5], the system named is SF-268.
The test system of experiment [6] is A549.
Experiment [7] deals with OVCAR-8.
Experiment [8] concerns UACC-257.
The subject of experiment [9] is RXF 393.
Experiment [10] deals with NCI-H522.
In experiment [11] the test system is ACHN.
For experiment [12], the system named is TK-10.
Experiment [13] deals with SNB-19.
Experiment [14] concerns OVCAR-4.
The subject of experiment [15] is SF-295.
Experiment [16] concerns NCI/ADR-RES.
For experiment [17], the system named is Hs-578T.
In experiment [18] the test system is DU-145.
Experiment [19] relates to PC-3.

On to `O=C(OCCCl)C1OC(n2cc(F)c(=O)[nH]c2=O)CC1O` (stereo unspecified), for which the GI50 in experiment [1] is 27.7 µM (inactive); in [2], > 100 µM (inactive); in experiment [3] it was > 100 µM (inactive); in experiment [4], > 100 µM (inactive); in experiment [5] it was > 100 µM (inactive); in experiment [6], > 100 µM (inactive). In addition, the GI50 in experiment [7], in experiment [8], in experiment [9], in [10], in experiment [11] and in [12] was > 100 µM (inactive) each time. For the same compound, the GI50 in experiment [13], in [14] and in [15] was > 100 µM (inactive) in each case.
`O=[N+]([O-])/C=C(\CS(=O)(=O)c1ccccc1)c1ccc2c(c1)OCO2`: the GI50 in experiment [1] was > 100 µM (inactive); in [2], 27 µM (inactive); in [3], 67.9 µM (inactive); in experiment [4] it was 31.8 µM (inactive); in [5], 27.2 µM (inactive); in [16], 19.7 µM (inactive). The GI50 is 37.8 µM (inactive) in experiment [6]; 60.1 µM (inactive) in experiment [7]; 64.3 µM (inactive) in [9]; 21.7 µM (inactive) in [10]; 45.6 µM (inactive) in [11]; 38.1 µM (inactive) in experiment [17]. Also, the results for the GI50 in experiment [18] and in [15] were 38.9 µM (inactive) and 36.7 µM (inactive), respectively.
For the compound `Cc1cc(C)nc(NS(=O)(=O)c2ccc(Nc3c4ccc(Cl)cc4nc4c(C(=O)NCCN(C)C)cccc34)cc2)n1`, the GI50 in experiment [1], in experiment [2], in experiment [3], in experiment [4], in experiment [5] and in [6] was > 100 µM (inactive) each time. Further, the GI50 in experiment [7], in [8], in experiment [9], in [10], in experiment [11] and in experiment [12] was > 100 µM (inactive) throughout. Also, the GI50 in experiment [13], in experiment [14] and in experiment [15] was > 100 µM (inactive) throughout.
Regarding `CN1CCC2(CC1)/C(=N/C1CCCCC1)NC(=O)N2c1ccccc1`, the GI50 in experiment [1], in experiment [2], in experiment [3], in [4], in [5] and in experiment [16] was > 100 µM (inactive) throughout. Besides, the GI50 in [6], in [7], in experiment [8], in experiment [9], in [11] and in experiment [12] was > 100 µM (inactive) throughout. Besides, the GI50 in experiment [17], in [18], in [13] and in experiment [15] was > 100 µM (inactive) each time.
As for `C=C[C@@H]1OC(=O)O[C@H]1CO`, the GI50 in [19], in experiment [2], in experiment [3], in experiment [4], in experiment [5] and in experiment [16] was > 100 µM (inactive) each time. In addition, the GI50 in experiment [6], in experiment [7], in experiment [8], in [11], in [12] and in experiment [17] was > 100 µM (inactive) each time. Further, the GI50 in experiment [18], in [13], in experiment [14] and in [15] was > 100 µM (inactive) throughout.
Regarding `NC(=O)c1ncn(C2CCC(CP(=O)(O)O)C2)c1N` (stereo unspecified), the GI50 in experiment [19], in [1], in experiment [2], in experiment [3], in experiment [5] and in experiment [16] was > 100 µM (inactive) in each case. For the same compound, the GI50 in experiment [6], in experiment [7], in [8], in [9], in [11] and in [12] was > 100 µM (inactive) throughout. The GI50 in experiment [17], in experiment [18], in experiment [13], in [14] and in experiment [15] was > 100 µM (inactive) in each case.
On to `COc1cc(Cn2c3c(c4c(CN(C)C)c(O)ccc42)C(=O)c2ccccc2C3=O)cc(OC)c1`, for which the GI50 is 21 µM (inactive) in experiment [19]; 17.9 µM (inactive) in [1]; 21.7 µM (inactive) in [2]; 24.4 µM (inactive) in [3]; 10.1 µM (inactive) in [4]; 14.8 µM (inactive) in experiment [5]. The GI50 in experiment [16] was 17.6 µM (inactive); in experiment [6] it was 15.1 µM (inactive); in experiment [7], 14.6 µM (inactive); in experiment [8] it was 22.8 µM (inactive); in [11], 15.3 µM (inactive); in [12], 28.7 µM (inactive). Further, the GI50 in [17] was 19.1 µM (inactive); in experiment [18], 21.7 µM (inactive); in [13] it was 18.7 µM (inactive); in experiment [14], 13.9 µM (inactive); in experiment [15] it was 21.5 µM (inactive).
Consider `O=C1C2c3[nH]c4ccccc4c3C3CCCCCC3C2C(=O)N1c1ccccc1` (stereo unspecified), for which the GI50 is > 56.1 µM (inactive) in [1]; > 100 µM (inactive) in experiment [2]; 16 µM (inactive) in experiment [3]; 30.8 µM (inactive) in experiment [4]; 39.2 µM (inactive) in [5]; 34.4 µM (inactive) in experiment [6]. In addition, the GI50 is 11.8 µM (inactive) in experiment [7]; 30.7 µM (inactive) in [8]; 12.4 µM (inactive) in experiment [9]; 37.7 µM (inactive) in [10]; 39.6 µM (inactive) in [11]; 35.3 µM (inactive) in experiment [12]. Besides, the figures for the GI50 in experiment [13], in experiment [14] and in [15] were 25.8 µM (inactive), 3.09 µM (inactive) and 11 µM (inactive), respectively.
On to `CCCCN(CCCC)CCCCNc1c(C)cnc2cc(Cl)ccc12`, for which the GI50 was 14.5 µM (inactive) in experiment [1]; 2.79 µM (inactive) in experiment [2]; 25.9 µM (inactive) in experiment [3]; 23.6 µM (inactive) in [4]; 21.6 µM (inactive) in experiment [5]; 30.9 µM (inactive) in experiment [6]. For the same compound, the GI50 in experiment [7] is 49.4 µM (inactive); in [8], 14.6 µM (inactive); in experiment [9] it was 13.3 µM (inactive); in experiment [10], 15.2 µM (inactive); in experiment [11], 24.3 µM (inactive); in experiment [12] it was 34.4 µM (inactive). The GI50 in [13] is 52.5 µM (inactive); in experiment [14], 49.2 µM (inactive); in experiment [15], 19.1 µM (inactive).
As to `CN(C)CC(NC(NCS)C(=O)NCCNc1ccc(NCCNC(=O)C(NCS)NC(CN(C)C)OCCl)c2c1C(=O)c1c(O)ccc(O)c1C2=O)OCCl` (stereo unspecified), the GI50 in experiment [19] is 0.256 µM (active); in [1], 0.237 µM (active); in experiment [2] it was 0.525 µM (active); in experiment [4], 0.0635 µM (active); in [5], 0.0557 µM (active); in experiment [16], 1.58 µM (inactive). Moreover, the GI50 in [6] is < 0.001 µM (active); in [7] it was 0.00377 µM (active); in experiment [8], 0.929 µM (active); in experiment [11] it was < 0.001 µM (active); in experiment [12], 0.619 µM (active); in experiment [17], 0.243 µM (active). Besides, the GI50 in experiment [18] was 0.0365 µM (active); in experiment [13], 0.0301 µM (active); in [14] it was 0.502 µM (active); in experiment [15], 0.00518 µM (active).
Consider `CCCNCC(=O)O[C@]1(CC)C(=O)OCc2c1cc1n(c2=O)Cc2cc3ccccc3nc2-1`, for which the GI50 is 0.661 µM (active) in experiment [1]; 0.129 µM (active) in experiment [2]; < 0.01 µM (active) in experiment [3]; 0.163 µM (active) in [4]; < 0.01 µM (active) in experiment [5]; 0.0322 µM (active) in experiment [6]. Further, the GI50 in experiment [7] is 0.161 µM (active); in experiment [8], 0.163 µM (active); in experiment [9], 0.0397 µM (active); in [10] it was 0.0271 µM (active); in experiment [11], < 0.01 µM (active); in [12] it was 4.43 µM (inactive). Besides, the GI50 was 0.0364 µM (active) in experiment [13], 0.69 µM (active) in experiment [14] and < 0.01 µM (active) in experiment [15].
`CC1(C)C(=O)/C=C\C(=O)C(C)(C)C2=CC=C(O2)C(C)(C)C(=O)/C=C\C(=O)C(C)(C)C2=CC=C1O2`: the GI50 in experiment [1], in experiment [2], in experiment [3], in experiment [4], in experiment [5] and in [6] was > 100 µM (inactive) in each case. For the same compound, the GI50 in [7], in experiment [8], in experiment [9], in [10], in [11] and in experiment [12] was > 100 µM (inactive) each time. Besides, the GI50 in [13], in experiment [14] and in experiment [15] was > 100 µM (inactive) throughout.
For the compound `CCOc1ccc(/C=C/c2cc(OC)c(OC)c(OC)c2)cc1`, the GI50 in experiment [1] was 1.14 µM (inactive); in experiment [2] it was > 100 µM (inactive); in experiment [3], 1.37 µM (inactive); in experiment [4] it was 0.439 µM (active); in [5], 2.18 µM (inactive); in experiment [6], 1.08 µM (active). Moreover, the GI50 is 3.9 µM (inactive) in [7]; 0.658 µM (active) in [8]; 0.347 µM (active) in experiment [9]; 0.429 µM (active) in experiment [10]; 1.56 µM (inactive) in [11]; 8.83 µM (inactive) in experiment [12]. For the same compound, the GI50 is 4.36 µM (inactive) in experiment [13], 11.7 µM (inactive) in experiment [14] and 0.346 µM (active) in experiment [15].
